The record followed here is ChEMBL document CHEMBL5649166, “RIP3 induces apoptosis independent of pronecrotic kinase activity” (Mol Cell, 2014).

The test system of series [1] is 3T3SA. Kind of series: Induction of apoptosis in RIP3 shRNA transfected mouse 3T3SA cells co-transfected with shRNA resistant RIP3 K51A mutant assessed as accumulation of RIP3 K51A mutant in pellet incubated for 3 hrs in presence of zVAD by immunoblot analysis. It is filed as toxicity, cell-based. On the technique in general: Immunoblotting shows a protein as a band on a membrane.

Series [2] has as its system MEF. Kind of series: Induction of apoptosis in Casp8-/- MEF cells incubated for 18 hrs by Cell Titer-Glo luminescent cell viability assay. It is filed as toxicity, cell-based. The following applies: mouse.
For series [3], the system named is 3T3SA. The series is described as follows: Induction of apoptosis in mouse 3T3SA cells transfected with RIP3 shRNA at 10 uM incubated for 18 hrs by Cell Titer-Glo luminescent cell viability assay. It counts as toxicity, cell-based.
For series [4], the system named is 3T3SA. Kind of series: Induction of apoptosis in RIP3 shRNA transfected mouse 3T3SA cells co-transfected with shRNA resistant RIP3 assessed as accumulation of wildtype RIP3 in pellet incubated for 3 hrs in presence of zVAD by immunoblot analysis. It is filed as toxicity, cell-based.
The subject of series [5] is SVEC4-10. The series is described as follows: Inhibition of DAI-induced necroptosis in MCMV M45mutRHIM infected mouse SVEC4-10 cells assessed as increase in cell viability at 10 uM incubated for 18 hrs by Cell Titer-Glo luminescent cell viability assay. It is filed as functional, cell-based. Background: ATP-based viability assays read luminescence as a measure of living cells.

A further series has as its system NIH3T3. Kind of series: Induction of apoptosis in mouse NIH/3T3 cells expressing low level of […] at 1 to 10 uM incubated for 18 hrs by Cell Titer-Glo luminescent cell viability assay. The following applies: nih3t3, 18 h, dose 1-10 µM. It counts as toxicity, cell-based.
The test system of series [6] is 3T3SA. The series is described as follows: Induction of apoptosis in RIP3 shRNA transfected mouse 3T3SA cells co-transfected with shRNA resistant RIP3 D161G mutant assessed as accumulation of FLAG-tagged RIP3 D161G mutant in pellet incubated for 3 hrs in presence of zVAD by immunoblot analysis. It counts as toxicity, cell-based.
For series [7], the system named is 3T3SA. The series is described as follows: Induction of apoptosis in vICA expression plasmid transfected mouse 3T3SA cells co-transfected with shRNA-resistant RIP3 K51A mutant incubated for 12 hrs by Cell Titer-Glo luminescent cell viability assay. It is filed as toxicity, cell-based.
Series [8] relates to 3T3SA. Kind of series: Induction of apoptosis in mouse 3T3SA cells transfected with RIP1 siRNA assessed as accumulation of cleaved caspase 8 incubated for 0.5 to 1.5 hrs by immunoblot analysis. Particulars: time 0.5-1.5 hrs. It is filed as toxicity, cell-based.
Series [9] has as its system 3T3SA. The series is described as follows: Induction of apoptosis in vICA expression plasmid transfected mouse 3T3SA cells co-transfected with shRNA-resistant RIP3 D143N mutant incubated for 12 hrs by Cell Titer-Glo luminescent cell viability assay. It is filed as toxicity, cell-based.
In series [10] the test system is 3T3SA. The series is described as follows: Induction of apoptosis in mouse 3T3SA cells transfected with RIP1 siRNA assessed as accumulation of cleaved caspase 3 incubated for 0.5 to 1.5 hrs by immunoblot analysis. It is filed as toxicity, cell-based. Particulars: time 0.5-1.5 hrs.
Series [11] concerns SVEC4-10. The series is described as follows: Inhibition of DAI-induced necroptosis in MCMV M45mutRHIM infected mouse SVEC4-10 cells assessed as increase in cell viability at 10 uM incubated for 18 hrs in presence of zVAD by Cell Titer-Glo luminescent cell viability assay. It counts as functional, cell-based.
Series [12] concerns 3T3SA. Kind of series: Induction of apoptosis in mouse 3T3SA cells transfected with RIP3 shRNA assessed as accumulation of cleaved caspase-3 by measuring percentage of cleaved caspase-3 positive cells measured after 8 hrs by immunoblot analysis (reference value: 11%). It counts as toxicity, cell-based.
Series [13] has as its system MEF. Kind of series: Induction of apoptosis in RIP-/- MEF cells incubated for 18 hrs by Cell Titer-Glo luminescent cell viability assay. It counts as toxicity, cell-based. The following applies: mouse.
A further series concerns L929. Kind of series: Inhibition of TLR-3 induced necroptosis in mouse L929 cells assessed as increase in cell viability upto 10 uM incubated for 18 hrs in presence of poly(I:C) and zVAD by Cell Titer-Glo luminescent cell viability assay. It is filed as functional, cell-based.
The subject of series [14] is 3T3SA. Kind of series: Induction of apoptosis in mouse 3T3SA cells incubated for 18 hrs in presence of BMS-345541 by Cell Titer-Glo luminescent cell viability assay. It is filed as toxicity, cell-based.
Series [15] deals with 3T3SA. The series is described as follows: Induction of apoptosis in mouse 3T3SA cells assessed as cell death by measuring percent of PI positive cells incubated for 8 hrs in presence of zVAD by PI staining based flow cytometric analysis (reference value: 11.4%). It is filed as toxicity. For orientation: In flow cytometry, cells or beads pass a laser one at a time.
Series [16] relates to SVEC4-10. Kind of series: Induction of apoptosis in mouse SVEC4-10 cells transfected with MCMV M45-encoded vIRA incubated for 18 hrs by Cell Titer-Glo luminescent cell viability assay. The following applies: svec4-10, 18 h. It counts as toxicity, cell-based.
For series [17], the system named is 3T3SA. The series is described as follows: Induction of apoptosis in mouse 3T3SA cells incubated for 18 hrs in presence of Nec-1 by Cell Titer-Glo luminescent cell viability assay. It is filed as toxicity, cell-based.
The subject of another series is BMDM. Kind of series: Induction of apoptosis in mouse BMDM cells expressing RIP3 K51A/K51A mutant incubated for 18 hrs by Cell Titer-Glo luminescent cell viability assay. It is filed as toxicity, cell-based.
Series [18] concerns 3T3SA. Kind of series: Induction of apoptosis in mouse 3T3SA cells incubated for 18 hrs in presence of zIETD by Cell Titer-Glo luminescent cell viability assay. It counts as toxicity, cell-based.
Series [19] concerns 3T3SA. The series is described as follows: Induction of apoptosis in mouse 3T3SA cells incubated for 18 hrs in presence of 3-MA by Cell Titer-Glo luminescent cell viability assay. It is filed as toxicity, cell-based.
Series [20] concerns 3T3SA. Kind of series: Induction of apoptosis in RIP3shRNA transfected mouse 3T3SA cells co-transfected with shRNA-resistant RIP3 D143N mutant pre-tranfected for 16 hrs followed by compound addition and measured after 18 hrs in presence of zVAD by Cell Titer-Glo luminescent cell viability assay. It counts as toxicity, cell-based.
In series [21] the test system is 3T3SA. The series is described as follows: Induction of apoptosis in mouse 3T3SA cells assessed as accumulation of cleaved caspase-3 measured after 1.5 to 2.5 hrs by immunoblot analysis. It is filed as toxicity, cell-based. The following applies: time 1.5-2.5 hrs.
Series [22] concerns 3T3SA. Kind of series: Induction of apoptosis in mouse 3T3SA cells assessed as increase in caspase 8 proteolytic activity incubated for 2.5 hrs. It is filed as toxicity, cell-based.
For series [23], the system named is 3T3SA. Kind of series: Induction of apoptosis in vICA expression plasmid transfected mouse 3T3SA cells co-transfected with shRNA-resistant RIP3 mutRHIM incubated for 12 hrs by Cell Titer-Glo luminescent cell viability assay. It is filed as toxicity, cell-based.
Series [24] deals with MEF. Kind of series: Induction of apoptosis in RIP3-/- MEF cells expressing dox-induced wildtype RIP3 assessed as RIP1-FADD association incubated for 1 hrs by immunoblot analysis. It is filed as toxicity, cell-based. Particulars: mouse.
The test system of series [25] is MEF. Kind of series: Induction of apoptosis in MEF cells expressing RIP3 K51A/K51A mutant incubated for 18 hrs by Cell Titer-Glo luminescent cell viability assay. It counts as toxicity, cell-based. The following applies: mouse.
For series [26], the system named is SVEC4-10. The series is described as follows: Induction of apoptosis in mouse SVEC4-10 cells transfected with M45mutRHIM incubated for 18 hrs by Cell Titer-Glo luminescent cell viability assay. It is filed as toxicity, cell-based. Particulars: svec4-10, 18 h.
Series [27] concerns the target Serine/threonine-protein kinase 38 (Homo sapiens) (UniProt Q15208). The series is described as follows: Inhibition of human STK38/NDR1 using KKRNRRLSVA as substrate at 1 uM in presence of 32P-ATP by Hotspot assay relative to control; values are per cent of control.
Series [28] has as its target MAP kinase-interacting serine/threonine-protein kinase 1 (Homo sapiens) (UniProt Q9BUB5). Kind of series: Inhibition of human MNK1 using myelin basic protein as substrate at 1 uM in presence of 32P-ATP by Hotspot assay relative to control; values are per cent of control.
The target in series [29] is Ephrin type-A receptor 6 (Homo sapiens) (UniProt Q9UF33). Kind of series: Inhibition of human EPHA6 using poly[Glu:Tyr] (4:1) as substrate at 1 uM in presence of 32P-ATP by Hotspot assay relative to control; values are per cent of control.
Ephrin type-A receptor 6 (Homo sapiens), sequence (Q9UF33 whole entry): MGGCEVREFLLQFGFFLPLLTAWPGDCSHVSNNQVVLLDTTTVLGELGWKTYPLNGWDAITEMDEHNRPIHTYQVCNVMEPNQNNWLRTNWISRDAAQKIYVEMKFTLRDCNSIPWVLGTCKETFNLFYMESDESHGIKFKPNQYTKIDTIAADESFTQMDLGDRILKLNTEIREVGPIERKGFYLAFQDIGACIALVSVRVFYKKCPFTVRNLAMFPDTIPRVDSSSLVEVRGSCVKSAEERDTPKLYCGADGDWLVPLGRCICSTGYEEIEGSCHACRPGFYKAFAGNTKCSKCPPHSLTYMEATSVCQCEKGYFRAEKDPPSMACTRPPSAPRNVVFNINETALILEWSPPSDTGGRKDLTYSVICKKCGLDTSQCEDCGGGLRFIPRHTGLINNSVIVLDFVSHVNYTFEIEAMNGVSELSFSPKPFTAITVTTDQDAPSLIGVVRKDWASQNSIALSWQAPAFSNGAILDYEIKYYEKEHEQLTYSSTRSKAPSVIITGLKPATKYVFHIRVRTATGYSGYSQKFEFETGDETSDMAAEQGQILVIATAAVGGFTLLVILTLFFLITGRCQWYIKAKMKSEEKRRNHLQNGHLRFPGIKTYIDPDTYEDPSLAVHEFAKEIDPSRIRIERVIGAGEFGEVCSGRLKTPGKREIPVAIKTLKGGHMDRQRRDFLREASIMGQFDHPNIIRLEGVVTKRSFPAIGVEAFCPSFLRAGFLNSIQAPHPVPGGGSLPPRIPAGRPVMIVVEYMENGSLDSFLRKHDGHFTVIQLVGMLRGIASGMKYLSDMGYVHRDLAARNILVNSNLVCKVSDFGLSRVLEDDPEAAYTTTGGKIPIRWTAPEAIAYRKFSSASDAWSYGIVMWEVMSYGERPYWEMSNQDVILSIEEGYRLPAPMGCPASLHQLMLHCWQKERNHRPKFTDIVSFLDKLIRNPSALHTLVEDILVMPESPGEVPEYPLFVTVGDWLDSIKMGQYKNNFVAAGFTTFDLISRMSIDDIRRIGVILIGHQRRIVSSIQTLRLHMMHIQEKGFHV

The source made the active and inactive calls. The calls are words filed in the database; no cut-off is given here.

Serine/threonine-protein kinase 38 (Homo sapiens), sequence (Q15208 2-465 limits assumed): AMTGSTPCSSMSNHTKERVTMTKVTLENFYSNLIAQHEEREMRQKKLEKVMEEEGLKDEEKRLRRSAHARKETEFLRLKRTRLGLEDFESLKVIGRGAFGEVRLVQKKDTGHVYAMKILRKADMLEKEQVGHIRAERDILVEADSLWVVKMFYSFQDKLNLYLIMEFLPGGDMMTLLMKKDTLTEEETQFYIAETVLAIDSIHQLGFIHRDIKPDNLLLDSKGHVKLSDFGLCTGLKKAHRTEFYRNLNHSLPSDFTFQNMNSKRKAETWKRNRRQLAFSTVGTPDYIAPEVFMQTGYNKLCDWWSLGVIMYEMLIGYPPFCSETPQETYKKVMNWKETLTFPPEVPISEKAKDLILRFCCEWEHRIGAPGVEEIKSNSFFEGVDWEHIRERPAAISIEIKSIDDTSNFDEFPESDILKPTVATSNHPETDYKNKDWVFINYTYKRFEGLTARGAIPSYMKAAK
MAP kinase-interacting serine/threonine-protein kinase 1 (Homo sapiens), sequence (Q9BUB5 whole entry, looked up): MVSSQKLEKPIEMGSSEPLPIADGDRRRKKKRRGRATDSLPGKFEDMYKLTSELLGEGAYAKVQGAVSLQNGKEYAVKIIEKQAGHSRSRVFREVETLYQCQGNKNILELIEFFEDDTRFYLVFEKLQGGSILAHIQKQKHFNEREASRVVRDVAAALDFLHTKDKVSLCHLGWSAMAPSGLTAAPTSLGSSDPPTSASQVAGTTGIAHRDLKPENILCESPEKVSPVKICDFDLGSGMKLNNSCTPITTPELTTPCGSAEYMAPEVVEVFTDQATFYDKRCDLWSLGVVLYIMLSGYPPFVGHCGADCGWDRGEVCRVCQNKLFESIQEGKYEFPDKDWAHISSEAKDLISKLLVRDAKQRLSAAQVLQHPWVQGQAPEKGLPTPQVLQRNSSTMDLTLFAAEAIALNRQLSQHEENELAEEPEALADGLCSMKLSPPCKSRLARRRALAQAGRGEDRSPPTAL

Regarding `CC(C)S(=O)(=O)c1ccc2nccc(Nc3ccc4scnc4c3)c2c1`, the Activity entry in the series with 3T3SA [1] is “Toxic”; with MEF [2] it was “Non-Toxic”; in the series with 3T3SA [3], “Non-Toxic”; with 3T3SA [4], “Toxic”; in the series with NIH3T3, “Non-Toxic”; in the series with 3T3SA [6], “Toxic”. Also, the Activity result in the series on 3T3SA [7] was “Non-Toxic”; in the series with 3T3SA [8], “Non-Toxic”; with 3T3SA [9], “Non-Toxic”; with 3T3SA [10] it was “Non-Toxic”; with 3T3SA [12], 12.1%; in the series on MEF [13], “Non-Toxic”. The Activity entry with 3T3SA [14] was “Toxic”; in the series on 3T3SA [15], 11%; in the series on SVEC4-10 [16] it was “Non-Toxic”; in the series on 3T3SA [17], “Non-Toxic”; in the series with BMDM, “Toxic”; with 3T3SA [18], “Non-Toxic”. Further, the Activity result in the series on 3T3SA [19] is listed as “Toxic”; with 3T3SA [20], “Non-Toxic”; in the series on 3T3SA [21] it was “Toxic”; with 3T3SA [22], “Toxic”; with 3T3SA [23] it was “Non-Toxic”; with MEF [24], “Toxic”. The Activity entry in the series on MEF [25] and in the series on SVEC4-10 [26] was “Toxic” throughout. Also, in the series with SVEC4-10 [5], the inhibition result was “inactive”. Also, the inhibition entry in the series with SVEC4-10 [11] and with L929 was “Active” each time.
Turning to `CNC(=O)c1ccc2c(c1)ncn2-c1ccc(CC(=O)OC(C)(C)C)cc1`, the residual activity in [27] turned out to be 96.4%; in series [28], 99.7%; in [29], 88.9%.

Usually residual activity stands for what remains of the control signal, in per cent.
